Like-named read-outs stand apart in the source and are kept apart here. Values belong to the compound of their own block, whether it stands above or below them.
Experiments:
[1] = test system: CYP1A2; test: CYP1A2 enzyme induction assay in cryopreserved HepaRG cells (phenacetin probe, LC/MS); format: in vitro ADME, human; details: for Prediction in vivo inducer: Cmax/F2 >0.5 criterion; for F2: in vitro concentration producing 2-fold induction; for Assigned classification CYP1A2: HepaRG; as to Assigned classification CYP1A2: key: 1=Positive=inducer; 0=Negative=non-inducer
[2] = test system: CYP2B6; test: CYP2B6 enzyme induction assay in cryopreserved HepaRG cells (bupropion probe, LC/MS); format: in vitro ADME, human; details: for Prediction in vivo inducer: Cmax/F2 >0.5 criterion; for Assigned classification CYP2B6: HepaRG; as to Assigned classification CYP2B6: key: 1=Positive=inducer; 0=Negative=non-inducer
[3] = test system: CYP3A4; test: CYP3A4 enzyme induction assay in cryopreserved HepaRG cells (midazolam probe, LC/MS); format: in vitro ADME, human; details: for Assigned classification CYP3A4: HepaRG; as to Assigned classification CYP3A4: key: 1=Positive=inducer; 0=Negative=non-inducer
[4] = test system: CYP1A2; test: CYP1A2 enzyme induction assay in cryopreserved primary human hepatocytes (PHH); format: in vitro ADME; details: for Prediction in vivo inducer: Cmax/F2 >0.5 criterion; for Assigned classification CYP1A2: PHH;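 as to Assigned classification CYP1A2: code 1 means positive inducer and 0 means non-inducer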
[5] = test system: CYP2B6; test: CYP2B6 enzyme induction assay in cryopreserved primary human hepatocytes (PHH); format: in vitro ADME; details: for Assigned classification CYP2B6: PHH;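 as to Assigned classification CYP2B6: code 1 means positive inducer and 0 means non-inducer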
[6] = test system: CYP1A2; details: cited from earlier work; for Induction in vivo: CYP1A2, human, ref Table 1; for CYP induction in vivo literature reference: CYP1A2: human in vivo, CYP named without remark = induced, ref references in the cell, Washington University database, Hoffmann et al. (2014), Pelkonen et al. (2008), Hukkanen et al. (2012); for CYP1A2 induction in vivo: human, ref Andersson, 1996
[7] = cited from earlier work
[8] = test system: CYP; details: cited from earlier work; for CYP induction in vitro (human hepatocytes): CYP isoforms induced, ref Abadie et al. (2009), Richert et al. (2010), Preissner et al. (2010), Hoffmann et al. (2014)
[9] = test system: CYP3A4; details: cited from earlier work; for CYP induction in vivo literature reference: CYP3A4: human in vivo, CYP named without remark = induced, ref references in the cell, Washington University database, Hoffmann et al. (2014), Pelkonen et al. (2008), Hukkanen et al. (2012)
[10] = test system: CYP3A4; test: CYP3A4 enzyme induction assay in cryopreserved primary human hepatocytes (PHH); details: for Assigned classification CYP3A4: PHH
[11] = human in vivo plasma concentration, normal dose
[12] = human in vivo, normal dose (Table 10)

Prediction in vivo inducer ([1]; CYP1A2, HepaRG cells): No
Prediction in vivo inducer ([1]; CYP1A2, HepaRG cells, listed as omeprazole): non-inducer
F2 ([1]; CYP1A2, HepaRG cells): 12.9 µM
Induction in vitro ([1]; CYP1A2, HepaRG cells, positive in one batch in each of the three laboratories): Yes
Assigned classification CYP1A2 ([1]; Lab 1, batch 20): 1
Assigned classification CYP1A2 ([1]; Lab 1, batch 35): 1
Assigned classification CYP1A2 ([1]; Lab 1, batch 36): 1
Assigned classification CYP1A2 ([1]; Lab 2, batch 20): 1
Assigned classification CYP1A2 ([1]; Lab 2, batch 35): 1
Assigned classification CYP1A2 ([1]; Lab 2, batch 36): 1
Assigned classification CYP1A2 ([1]; Lab 3, batch 20): 1
Assigned classification CYP1A2 ([1]; Lab 3, batch 35): 1
Assigned classification CYP1A2 ([1]; Lab 3, batch 36): 1
Prediction in vivo inducer ([2]; CYP2B6, HepaRG cells): No
Prediction in vivo inducer ([2]; CYP2B6, HepaRG cells, listed as omeprazole): predicted as a non-inducer
Induction in vitro ([2]; CYP2B6, HepaRG cells, positive in one batch in each of the three laboratories): No
Assigned classification CYP2B6 ([2]; Lab 1, batch 20): 0
Assigned classification CYP2B6 ([2]; Lab 1, batch 35): 0
Assigned classification CYP2B6 ([2]; Lab 1, batch 36): 0
Assigned classification CYP2B6 ([2]; Lab 2, batch 20): 0
Assigned classification CYP2B6 ([2]; Lab 2, batch 35): 0
Assigned classification CYP2B6 ([2]; Lab 2, batch 36): 1
Assigned classification CYP2B6 ([2]; Lab 3, batch 20): 1
Assigned classification CYP2B6 ([2]; Lab 3, batch 35): 0
Assigned classification CYP2B6 ([2]; Lab 3, batch 36): 0
Induction in vitro ([3]; CYP3A4, HepaRG cells): No
Prediction in vivo inducer ([3]; CYP3A4, HepaRG cells): No
Prediction in vivo inducer ([3]; CYP3A4, HepaRG cells, Cmax/F2 >0.5 criterion): non-inducer
Assigned classification CYP3A4 ([3]; Lab 1, batch 20): 0
Assigned classification CYP3A4 ([3]; Lab 1, batch 35): 0
Assigned classification CYP3A4 ([3]; Lab 1, batch 36): 0
Assigned classification CYP3A4 ([3]; Lab 2, batch 20): 0
Assigned classification CYP3A4 ([3]; Lab 2, batch 35): 0
Assigned classification CYP3A4 ([3]; Lab 2, batch 36): 0
Assigned classification CYP3A4 ([3]; Lab 3, batch 20): 0
Assigned classification CYP3A4 ([3]; Lab 3, batch 35): 0
Assigned classification CYP3A4 ([3]; Lab 3, batch 36): 0
Prediction in vivo inducer ([4]; CYP1A2, PHH): No
Prediction in vivo inducer ([4]; CYP1A2, PHH, listed as omeprazole): non-inducer
F2 ([4]; CYP1A2, PHH, in vitro concentration producing 2-fold induction): 38.6 to 118 µM
Induction in vitro ([4]; CYP1A2, PHH, positive in one donor in each of the three laboratories): Yes
Assigned classification CYP1A2 ([4]; Lab 1, batch 0 6 A): 1
Assigned classification CYP1A2 ([4]; Lab 1, batch 4 0 8): 1
Assigned classification CYP1A2 ([4]; Lab 1, batch 8 0 8): 1
Assigned classification CYP1A2 ([4]; Lab 2, batch 0 6 A): 1
Assigned classification CYP1A2 ([4]; Lab 2, batch 4 0 8): 1
Assigned classification CYP1A2 ([4]; Lab 2, batch 8 0 8): 1
Assigned classification CYP1A2 ([4]; Lab 3, batch 0 6 A): 1
Assigned classification CYP1A2 ([4]; Lab 3, batch 4 0 8): 1
Assigned classification CYP1A2 ([4]; Lab 3, batch 8 0 8): 1
F2 ([5]; CYP2B6, PHH): 38.6 to 116 µM
Induction in vitro ([5]; CYP2B6, PHH): Yes
Prediction in vivo inducer ([5]; CYP2B6, PHH): No
Prediction in vivo inducer ([5]; CYP2B6, PHH, Cmax/F2 >0.5 criterion): non-inducer
Assigned classification CYP2B6 ([5]; Lab 1, batch 0 6 A): 1
Assigned classification CYP2B6 ([5]; Lab 1, batch 4 0 8): 1
Assigned classification CYP2B6 ([5]; Lab 1, batch 8 0 8): 0
Assigned classification CYP2B6 ([5]; Lab 2, batch 0 6 A): 1
Assigned classification CYP2B6 ([5]; Lab 2, batch 4 0 8): 0
Assigned classification CYP2B6 ([5]; Lab 2, batch 8 0 8): 0
Assigned classification CYP2B6 ([5]; Lab 3, batch 0 6 A): 1
Assigned classification CYP2B6 ([5]; Lab 3, batch 4 0 8): 1
Assigned classification CYP2B6 ([5]; Lab 3, batch 8 0 8): 1
F2 ([10]; CYP3A4, PHH): 38.7 to 117 µM
Induction in vitro ([10]; CYP3A4, PHH): Yes
Prediction in vivo inducer ([10]; CYP3A4, PHH): No
Prediction in vivo inducer ([10]; CYP3A4, PHH, Cmax/F2 >0.5 criterion): non-inducer
Assigned classification CYP3A4 ([10]; Lab 1, batch 0 6 A): 1
Assigned classification CYP3A4 ([10]; Lab 1, batch 4 0 8): 0
Assigned classification CYP3A4 ([10]; Lab 1, batch 8 0 8): 1
Assigned classification CYP3A4 ([10]; Lab 2, batch 0 6 A): 1
Assigned classification CYP3A4 ([10]; Lab 2, batch 4 0 8): 0
Assigned classification CYP3A4 ([10]; Lab 2, batch 8 0 8): 0
Assigned classification CYP3A4 ([10]; Lab 3, batch 0 6 A): 1
Assigned classification CYP3A4 ([10]; Lab 3, batch 4 0 8): 0
Assigned classification CYP3A4 ([10]; Lab 3, batch 8 0 8): 1
SMILES: COc1ccc2[nH]c([S+]([O-])Cc3ncc(C)c(OC)c3C)nc2c1 (stereo not shown) [Omeprazole]
Induction in vivo [6]: No
CYP induction in vivo literature reference: CYP1A2 [6]: NOT induced at clinically used doses
CYP1A2 induction in vivo ([6]; 120 mg doses or poor metabolizers (40 mg dose)): weak inducer
CYP1A2 induction in vivo ([6]; normal doses (20-40 mg)): not a CYP1A2 inducer
Cmax [7, 11]: 0.68 to 3.5 µM
Cmax [7, 12]: 0.68 to 3.5 µM
CYP induction in vitro (human hepatocytes) [8]: CYP1A2, CYP2B6, CYP3A4
Induction in vivo ([9]; CYP3A4, human in vivo reference classification (Table 11)): No
CYP induction in vivo literature reference: CYP3A4 [9]: NOT induced

F2 ([1]; CYP1A2, HepaRG cells): 11 µM
F2 ([2]; CYP2B6, HepaRG cells, in vitro concentration producing 2-fold induction): 11.0 to 33.0 µM
F2 ([3]; CYP3A4, HepaRG cells): 11 µM
F2 ([5]; CYP2B6, PHH): 33 µM
F2 ([10]; CYP3A4, PHH): 3.66 µM
SMILES: O=C1C(CC[S+]([O-])c2ccccc2)C(=O)N(c2ccccc2)N1c1ccccc1 (stereo not shown) [Sulfinpyrazone]
Induction in vivo [6]: Yes
CYP induction in vivo literature reference: CYP1A2 [6]: CYP1A2
Cmax [7, 11]: 45 µM
Cmax [7, 12]: 45 µM
CYP2B6 induction in human hepatocytes ([8]; CYP2B6, ref Faucette et al., 2004): demonstrated
CYP induction in vitro (human hepatocytes) [8]: CYP1A2, CYP2B6, CYP3A4
CYP induction in vivo literature reference: CYP3A4 [9]: CYP3A4

— paper PMC6718736, “Validation of in vitro methods for human cytochrome P450 enzyme induction: Outcome of a multi-laboratory study” (Toxicology in Vitro, 2019)
